Source: ChEMBL document CHEMBL4834472 (J Med Chem, 2021)
Activity calls are given as the source filed them. No cut-off for these calls is given here.

Tests used:
MOLM-14 [1] = assay: Antiproliferative activity against human MOLM-14 cells harboring F691L mutant assessed as cell death measured after 72 hrs by resazurin dye based assay; type: functional; settings: MOLM-14, 72 h
[2] = molecular target: NT-3 growth factor receptor (Homo sapiens) (UniProt Q16288); assay: Inhibition of TRKC (unknown origin) assessed as residual activity at 500 nM
[3] = molecular target: T1, Receptor-type tyrosine-protein kinase FLT3 (Homo sapiens, UniProt P36888); assay: Inhibition of wild type FLT3 (unknown origin) using AGLT peptide substrate in presence of [32P]gammaATP by image analyser
T1 sequence (P36888 whole entry): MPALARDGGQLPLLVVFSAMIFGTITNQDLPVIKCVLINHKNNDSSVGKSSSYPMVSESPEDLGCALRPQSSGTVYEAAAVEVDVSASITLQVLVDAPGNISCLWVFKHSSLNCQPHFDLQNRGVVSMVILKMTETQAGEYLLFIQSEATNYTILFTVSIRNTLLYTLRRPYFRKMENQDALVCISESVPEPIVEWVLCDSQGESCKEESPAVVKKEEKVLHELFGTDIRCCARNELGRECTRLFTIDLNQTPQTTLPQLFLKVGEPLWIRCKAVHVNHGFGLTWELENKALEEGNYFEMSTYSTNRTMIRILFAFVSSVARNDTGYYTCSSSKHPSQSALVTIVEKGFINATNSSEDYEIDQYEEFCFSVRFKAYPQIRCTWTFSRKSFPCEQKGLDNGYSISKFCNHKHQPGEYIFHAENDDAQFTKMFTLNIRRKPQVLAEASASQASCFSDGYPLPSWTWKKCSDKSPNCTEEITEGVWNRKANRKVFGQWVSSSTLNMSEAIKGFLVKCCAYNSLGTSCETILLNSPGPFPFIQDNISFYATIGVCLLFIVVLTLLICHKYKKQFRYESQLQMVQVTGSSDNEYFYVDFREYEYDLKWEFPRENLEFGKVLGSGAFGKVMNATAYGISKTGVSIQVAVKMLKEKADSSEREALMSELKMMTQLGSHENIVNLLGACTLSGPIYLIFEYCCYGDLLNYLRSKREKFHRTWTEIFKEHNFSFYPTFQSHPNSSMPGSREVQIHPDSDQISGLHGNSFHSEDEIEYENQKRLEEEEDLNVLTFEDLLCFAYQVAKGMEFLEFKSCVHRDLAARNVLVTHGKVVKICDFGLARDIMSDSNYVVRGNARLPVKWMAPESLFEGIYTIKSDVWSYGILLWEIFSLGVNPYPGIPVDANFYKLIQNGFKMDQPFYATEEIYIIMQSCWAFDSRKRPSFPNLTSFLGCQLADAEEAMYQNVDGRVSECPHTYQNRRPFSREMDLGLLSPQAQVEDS

[4] = system: Receptor-type tyrosine-protein kinase FLT3 (Homo sapiens), P36888 [D835Y]; assay: Inhibition of FLT3 D835Y (unknown origin) assessed as residual activity at 500 nM
[5] = molecular target: Receptor-type tyrosine-protein kinase FLT3 (Homo sapiens) (UniProt P36888); assay: Inhibition of FLT3 in human MV4-11 cells assessed as STAT5 phosphorylation at Y694 at 20 to 100 nM incubated for 1 hrs by Western blot analysis; type: cell-based; settings: dose 20-100 nM
MV4-11 [6] = assay: Induction of apoptosis in human MV4-11 cells assessed as caspase 3 activation using fluorescent substrate Ac-DEVD-AMC at 100 nM incubated for 24 hrs by Western blot analysis; type: functional, cell-based
[7] = molecular target: Receptor-type tyrosine-protein kinase FLT3 (Homo sapiens) (UniProt P36888); assay: Inhibition of FLT3 in human MV4-11 cells assessed as ERK1/2 phosphorylation at 20 to 100 nM incubated for 1 hrs by Western blot analysis; type: cell-based; settings: dose 20-100 nM
[8] = molecular target: Receptor-type tyrosine-protein kinase FLT3 (Homo sapiens, UniProt P36888, D835V); assay: Binding affinity to human partial length FLT3 ITD D835V mutant expressed in mammalian expression system by KdELECT Discover assay
THP-1 = assay: Antiproliferative activity against human THP-1 cells assessed as cell death measured after 72 hrs by resazurin dye based assay; type: functional; settings: THP-1, 72 h
MV4-11 [9] = assay: Induction of apoptosis in human MV4-11 cells assessed as decrease in MCL1 level at 100 nM incubated for 24 hrs by Western blot analysis; type: functional, cell-based
[10] = system: Receptor-type tyrosine-protein kinase FLT3 (Homo sapiens), P36888 [UNDEFINED MUTATION]; assay: Inhibition of FLT3 ITD (unknown origin) assessed as residual activity at 500 nM
[11] = molecular target: Receptor-type tyrosine-protein kinase FLT3 (Homo sapiens) (UniProt P36888); assay: Inhibition of FLT3 autophosphorylation in human MV4-11 cells at 20 to 100 nM incubated for 1 hrs by Western blot analysis; type: cell-based; settings: dose 20-100 nM
CDK9/cyclin T1 = CDK9/cyclin T1 (Homo sapiens, UniProt P50750); assay: Inhibition of CDK9/cyclin T1 (unknown origin) in presence of [32P]gammaATP by image analyser; type: protein-complex assay
BaF3 = assay: Antiproliferative activity against mouse BaF3 cells assessed as cell death measured after 72 hrs by resazurin dye based assay; type: functional; settings: BaF3, 72 h
[12] = molecular target: Leucine-rich repeat serine/threonine-protein kinase 2 (Homo sapiens) (UniProt Q5S007); assay: Inhibition of LRRK2 (unknown origin) assessed as residual activity at 500 nM
[13] = molecular target: Cyclin-dependent kinase 1/cyclin B1 (Homo sapiens, UniProt P06493); assay: Inhibition of CDK1/cyclin B1 (unknown origin) in presence of [32P]gammaATP by image analyser; type: protein-complex assay
U-937 = assay: Antiproliferative activity against human U-937 cells assessed as cell death measured after 72 hrs by resazurin dye based assay; type: functional; settings: U-937, 72 h
MV4-11 [14] = assay: cells; settings: Homo sapiens, MV4-11, 72 h
Description: Antiproliferative activity against human MV4-11 cells assessed as cell death measured after 72 hrs by resazurin dye based assay

MV4-11 [15] = assay: Induction of apoptosis in human MV4-11 cells assessed as caspase 7 activation using fluorescent substrate Ac-DEVD-AMC at 100 nM incubated for 24 hrs by Western blot analysis; type: functional, cell-based
[16] = molecular target: Cyclin-dependent kinase 4/cyclin D1 (Homo sapiens, UniProt P11802); assay: Inhibition of CDK4/cyclin D1 (unknown origin) in presence of [32P]gammaATP by image analyser; type: protein-complex assay
MV4-11 [17] = assay: Induction of apoptosis in human MV4-11 cells assessed as increase in cleaved PARP1 level at 100 nM incubated for 24 hrs by Western blot analysis; type: functional, cell-based
[18] = molecular target: Cyclin-dependent kinase 2/cyclin E1 (Homo sapiens, UniProt P24941); assay: Inhibition of CDK2/cyclin E1 (unknown origin) in presence of [32P]gammaATP by image analyser; type: protein-complex assay
[19] = molecular target: Dual specificity protein kinase CLK1 (Homo sapiens) (UniProt P49759); assay: Inhibition of CLK1 (unknown origin) assessed as residual activity at 500 nM
MOLM-14 [20] = assay: Antiproliferative activity against human MOLM-14 cells harboring D835Y mutant assessed as cell death measured after 72 hrs by resazurin dye based assay; type: functional; settings: MOLM-14, 72 h
MOLM-13 = assay: Antiproliferative activity against human MOLM-13 cells assessed as cell death measured after 72 hrs by resazurin dye based assay; type: functional; settings: MOLM-13, 72 h

Chain of CDK9/cyclin T1 (O60563 whole entry): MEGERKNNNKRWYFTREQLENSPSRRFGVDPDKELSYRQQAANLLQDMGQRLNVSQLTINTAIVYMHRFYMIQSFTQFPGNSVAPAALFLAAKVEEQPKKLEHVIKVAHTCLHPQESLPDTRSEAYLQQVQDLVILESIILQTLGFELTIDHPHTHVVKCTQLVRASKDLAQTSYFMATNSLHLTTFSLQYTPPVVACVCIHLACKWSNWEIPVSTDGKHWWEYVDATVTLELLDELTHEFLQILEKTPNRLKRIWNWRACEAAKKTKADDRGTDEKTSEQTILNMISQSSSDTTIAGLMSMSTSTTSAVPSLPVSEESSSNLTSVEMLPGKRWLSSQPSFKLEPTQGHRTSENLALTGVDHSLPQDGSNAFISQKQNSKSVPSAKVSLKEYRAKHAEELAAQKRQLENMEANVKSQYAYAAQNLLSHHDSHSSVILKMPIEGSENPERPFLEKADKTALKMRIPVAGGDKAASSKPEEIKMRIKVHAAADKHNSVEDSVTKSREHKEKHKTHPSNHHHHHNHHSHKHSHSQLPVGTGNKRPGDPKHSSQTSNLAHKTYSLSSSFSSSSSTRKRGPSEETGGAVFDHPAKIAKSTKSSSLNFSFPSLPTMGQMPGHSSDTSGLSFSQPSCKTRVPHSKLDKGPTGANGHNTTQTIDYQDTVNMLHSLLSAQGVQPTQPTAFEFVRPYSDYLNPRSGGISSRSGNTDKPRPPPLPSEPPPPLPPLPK
Chain of CDK9/cyclin T1 (P50750 whole entry): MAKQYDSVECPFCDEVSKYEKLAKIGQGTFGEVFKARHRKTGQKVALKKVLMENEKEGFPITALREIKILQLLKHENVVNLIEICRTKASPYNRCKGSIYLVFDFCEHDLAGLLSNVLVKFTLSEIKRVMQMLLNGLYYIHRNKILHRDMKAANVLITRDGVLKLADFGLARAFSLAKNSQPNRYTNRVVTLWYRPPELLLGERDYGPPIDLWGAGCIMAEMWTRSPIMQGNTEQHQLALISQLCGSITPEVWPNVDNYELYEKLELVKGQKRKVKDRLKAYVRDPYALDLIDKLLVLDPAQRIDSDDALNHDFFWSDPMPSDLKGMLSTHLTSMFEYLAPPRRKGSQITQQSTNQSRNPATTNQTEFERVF
Chain of Cyclin-dependent kinase 1/cyclin B1 (P06493 whole entry): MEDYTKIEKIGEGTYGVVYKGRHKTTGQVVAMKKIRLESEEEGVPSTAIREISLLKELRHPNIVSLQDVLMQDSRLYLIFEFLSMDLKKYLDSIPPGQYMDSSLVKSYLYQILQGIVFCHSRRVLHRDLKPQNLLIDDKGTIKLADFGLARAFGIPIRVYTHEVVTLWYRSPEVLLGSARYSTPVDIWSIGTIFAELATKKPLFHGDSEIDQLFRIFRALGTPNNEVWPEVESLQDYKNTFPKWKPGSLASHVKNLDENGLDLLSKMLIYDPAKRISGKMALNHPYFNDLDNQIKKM
Chain of Cyclin-dependent kinase 1/cyclin B1 (P14635 whole entry, further chain): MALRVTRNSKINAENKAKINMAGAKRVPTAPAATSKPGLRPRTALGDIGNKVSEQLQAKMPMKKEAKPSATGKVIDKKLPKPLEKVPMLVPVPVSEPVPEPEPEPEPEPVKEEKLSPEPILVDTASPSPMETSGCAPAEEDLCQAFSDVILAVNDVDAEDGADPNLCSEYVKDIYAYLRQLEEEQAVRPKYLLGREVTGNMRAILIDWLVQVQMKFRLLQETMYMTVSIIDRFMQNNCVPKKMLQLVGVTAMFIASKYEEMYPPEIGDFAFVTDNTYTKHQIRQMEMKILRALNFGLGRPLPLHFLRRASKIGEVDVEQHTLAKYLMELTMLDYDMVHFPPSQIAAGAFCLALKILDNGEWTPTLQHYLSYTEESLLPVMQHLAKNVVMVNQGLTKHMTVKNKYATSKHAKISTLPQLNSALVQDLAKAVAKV
Chain of Dual specificity protein kinase CLK1 (Homo sapiens) (P49759 whole entry, looked up): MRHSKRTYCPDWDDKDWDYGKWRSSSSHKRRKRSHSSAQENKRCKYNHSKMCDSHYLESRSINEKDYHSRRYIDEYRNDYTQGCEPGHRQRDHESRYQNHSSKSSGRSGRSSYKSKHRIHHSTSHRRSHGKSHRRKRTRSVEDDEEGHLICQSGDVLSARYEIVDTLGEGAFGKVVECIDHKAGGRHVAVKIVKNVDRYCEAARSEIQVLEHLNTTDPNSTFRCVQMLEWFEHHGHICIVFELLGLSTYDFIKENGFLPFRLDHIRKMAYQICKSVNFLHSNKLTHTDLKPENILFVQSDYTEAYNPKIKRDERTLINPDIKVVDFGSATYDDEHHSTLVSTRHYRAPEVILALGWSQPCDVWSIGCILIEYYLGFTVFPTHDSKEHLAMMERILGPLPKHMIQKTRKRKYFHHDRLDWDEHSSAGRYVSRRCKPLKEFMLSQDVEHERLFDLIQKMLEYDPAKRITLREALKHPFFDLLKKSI
Chain of Leucine-rich repeat serine/threonine-protein kinase 2 (Homo sapiens) (Q5S007 whole entry): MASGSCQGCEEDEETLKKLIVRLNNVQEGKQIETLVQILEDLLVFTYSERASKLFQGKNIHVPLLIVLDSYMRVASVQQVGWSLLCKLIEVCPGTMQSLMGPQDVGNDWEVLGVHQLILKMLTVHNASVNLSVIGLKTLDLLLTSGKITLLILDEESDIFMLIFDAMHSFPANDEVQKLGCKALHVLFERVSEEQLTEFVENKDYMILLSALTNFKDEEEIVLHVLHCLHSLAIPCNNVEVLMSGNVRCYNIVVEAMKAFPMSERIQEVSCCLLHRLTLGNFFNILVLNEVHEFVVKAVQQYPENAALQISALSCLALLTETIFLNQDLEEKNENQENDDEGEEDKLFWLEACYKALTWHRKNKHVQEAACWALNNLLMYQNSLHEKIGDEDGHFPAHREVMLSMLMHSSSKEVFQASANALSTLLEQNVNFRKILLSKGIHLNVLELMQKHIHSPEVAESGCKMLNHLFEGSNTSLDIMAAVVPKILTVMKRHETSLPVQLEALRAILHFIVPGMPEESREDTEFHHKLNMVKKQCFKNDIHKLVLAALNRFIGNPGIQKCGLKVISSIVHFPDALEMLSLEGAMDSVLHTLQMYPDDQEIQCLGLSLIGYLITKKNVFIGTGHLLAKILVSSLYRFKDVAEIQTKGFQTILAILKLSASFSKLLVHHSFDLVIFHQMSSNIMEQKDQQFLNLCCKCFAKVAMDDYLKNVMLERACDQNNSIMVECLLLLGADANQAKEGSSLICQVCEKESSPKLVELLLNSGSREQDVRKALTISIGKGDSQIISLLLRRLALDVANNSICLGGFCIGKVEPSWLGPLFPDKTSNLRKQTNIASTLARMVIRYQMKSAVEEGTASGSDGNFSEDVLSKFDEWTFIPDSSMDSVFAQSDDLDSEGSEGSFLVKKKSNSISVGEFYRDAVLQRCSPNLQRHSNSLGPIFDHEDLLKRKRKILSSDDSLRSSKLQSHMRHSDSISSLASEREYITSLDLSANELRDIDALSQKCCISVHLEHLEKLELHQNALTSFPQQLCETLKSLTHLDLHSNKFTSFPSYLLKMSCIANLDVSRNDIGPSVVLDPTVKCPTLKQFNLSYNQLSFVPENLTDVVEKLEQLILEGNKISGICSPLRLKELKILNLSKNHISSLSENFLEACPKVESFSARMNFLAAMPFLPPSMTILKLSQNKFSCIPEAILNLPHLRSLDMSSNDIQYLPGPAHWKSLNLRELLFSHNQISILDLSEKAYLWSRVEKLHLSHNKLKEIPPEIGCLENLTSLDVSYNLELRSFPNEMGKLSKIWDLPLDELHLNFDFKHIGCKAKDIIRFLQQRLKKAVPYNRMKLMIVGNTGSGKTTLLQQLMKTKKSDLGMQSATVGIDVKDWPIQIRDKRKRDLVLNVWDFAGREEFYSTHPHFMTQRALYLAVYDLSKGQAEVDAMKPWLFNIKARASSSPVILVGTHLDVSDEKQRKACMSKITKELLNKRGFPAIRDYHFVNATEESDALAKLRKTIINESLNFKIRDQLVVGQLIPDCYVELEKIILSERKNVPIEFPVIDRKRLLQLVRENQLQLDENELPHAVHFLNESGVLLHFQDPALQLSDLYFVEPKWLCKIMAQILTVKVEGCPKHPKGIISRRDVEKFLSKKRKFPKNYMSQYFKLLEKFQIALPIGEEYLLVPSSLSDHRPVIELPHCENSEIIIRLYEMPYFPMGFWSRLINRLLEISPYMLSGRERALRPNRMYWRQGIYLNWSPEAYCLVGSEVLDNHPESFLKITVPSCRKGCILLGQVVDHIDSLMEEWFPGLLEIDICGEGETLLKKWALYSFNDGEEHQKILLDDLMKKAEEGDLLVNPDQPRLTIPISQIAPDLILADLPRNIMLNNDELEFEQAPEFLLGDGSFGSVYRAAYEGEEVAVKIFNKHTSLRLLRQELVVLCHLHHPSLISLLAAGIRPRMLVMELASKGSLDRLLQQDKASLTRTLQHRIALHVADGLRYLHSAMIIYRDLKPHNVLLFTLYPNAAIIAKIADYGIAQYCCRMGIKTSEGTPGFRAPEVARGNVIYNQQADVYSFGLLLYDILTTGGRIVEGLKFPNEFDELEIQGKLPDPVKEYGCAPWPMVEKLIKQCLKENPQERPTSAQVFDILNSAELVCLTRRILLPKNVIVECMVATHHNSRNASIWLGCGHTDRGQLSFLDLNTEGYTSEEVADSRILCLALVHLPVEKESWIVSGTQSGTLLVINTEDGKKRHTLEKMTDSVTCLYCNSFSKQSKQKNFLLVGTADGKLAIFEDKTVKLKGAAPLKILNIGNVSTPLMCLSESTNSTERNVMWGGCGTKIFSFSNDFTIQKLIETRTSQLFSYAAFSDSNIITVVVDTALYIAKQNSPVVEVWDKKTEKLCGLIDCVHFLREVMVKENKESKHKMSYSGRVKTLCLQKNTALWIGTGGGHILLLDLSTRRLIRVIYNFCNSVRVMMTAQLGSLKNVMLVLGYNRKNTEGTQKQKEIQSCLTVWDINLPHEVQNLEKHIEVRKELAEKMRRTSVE

Cc1n[nH]c2ccc3nc(-c4c[nH]nc4C(F)(F)F)c4c(c3c12)CCCC4
IC50 (MOLM-14 [1]): 53 nM | Activity [2]: 4% | IC50 [3]: 25 nM | Activity [4]: < 2.5% | inhibition [5]: Active | Activity (MV4-11 [6]): Active | inhibition [7]: inactive | Kd [8]: 0.73 nM | IC50 (THP-1): 6800 nM | Activity (MV4-11 [9]): Active | Activity [10]: < 2.5% | inhibition [11]: Active | IC50 (CDK9/cyclin T1): > 1000 nM | IC50 (BaF3): 153000 nM | Activity [12]: 4% | IC50 [13]: 157 nM | IC50 (U-937): 2880 nM | IC50 (MV4-11 [14]): 70 nM | Activity (MV4-11 [15]): Active | IC50 [16]: > 1000 nM | Activity (MV4-11 [17]): Active | IC50 [18]: 258 nM | Activity [19]: 4% | IC50 (MOLM-14 [20]): 36 nM | IC50 (MOLM-13): 68 nM
